Reference: patent US11109593B2, “Isoxazolin-5-one derivative and herbicide containing same as active ingredient” (HOKKO CHEMICAL INDUSTRY CO., LTD., priority 2017, dated 2021)

System: Echinochloa crus-galli
Test: Test Example 1: herbicidal effect test by treatment of rice paddy soil (immediately after seeding)
Type: in vivo
Conditions: 120 g/10a active ingredient, dry weight vs untreated area, 14 days after treatment
Outline: (§1)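 Flooded paddy pot test in a glass greenhouse: emulsion diluted in water, dropped at 120 g a.i. per 10 ares just after sowing, water depth kept about 3 cm. Dry-weight reduction relative to untreated plants is scored at 14 days.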

| Compound | Herbicidal rate (%) Echinochloa crus-galli [%] |
| --- | --- |
| Cc1c(Cc2ccccc2NS(=O)(=O)C(F)(F)F)c(=O)on1C(C)C [Compound 1-100] | 90 |
| Cc1c(Cc2ccccc2NS(=O)(=O)C(F)(F)F)c(=O)on1C(C)C1CC1 (centres unmarked) [Compound 1-144] | 100 |

System: Scirpus juncoides
Test: as above
Type: in vivo
Conditions: 120 g/10a active ingredient, dry weight vs untreated area, 14 days after treatment
Outline: as §1

| Compound | Herbicidal rate (%) Scirpus juncoides [%] |
| --- | --- |
| Cc1c(Cc2ccccc2NS(=O)(=O)C(F)(F)F)c(=O)on1C(C)C [Compound 1-100] | 90 |
| Cc1c(Cc2ccccc2NS(=O)(=O)C(F)(F)F)c(=O)on1C(C)C1CC1 (centres unmarked) [Compound 1-144] | 90 |

System: broad leaf weeds (Lindernia pyxidaria and Monochoria vaginalis)
Test: as above
Type: in vivo
Conditions: Lindernia pyxidaria, 120 g/10a active ingredient, dry weight vs untreated area, 14 days after treatment
Outline: as §1

| Compound | Herbicidal rate (%) Lindernia pyxidaria [%] |
| --- | --- |
| Cc1c(Cc2ccccc2NS(=O)(=O)C(F)(F)F)c(=O)on1C(C)C [Compound 1-100] | 100 |
| Cc1c(Cc2ccccc2NS(=O)(=O)C(F)(F)F)c(=O)on1C(C)C1CC1 (centres unmarked) [Compound 1-144] | 90 |

Same assay, conditions: Monochoria vaginalis, 120 g/10a active ingredient, dry weight vs untreated area, 14 days after treatment

| Compound | Herbicidal rate (%) Monochoria vaginalis [%] |
| --- | --- |
| Cc1c(Cc2ccccc2NS(=O)(=O)C(F)(F)F)c(=O)on1C(C)C [Compound 1-100] | 100 |
| Cc1c(Cc2ccccc2NS(=O)(=O)C(F)(F)F)c(=O)on1C(C)C1CC1 (centres unmarked) [Compound 1-144] | 100 |

System: Echinochloa crus-galli
Test: Test Example 2: herbicidal effect test by treatment during growing period in paddy rice cultivation (seven days after seeding)
Type: in vivo
Conditions: 120 g/10a active ingredient, assessed 14 days after treatment, dry weight vs untreated area
Outline: (§2)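 Sow 30 seeds per species (0–1 cm) into puddled, fertilized paddy soil; keep flooded ~3 cm in greenhouse. Day 7 after seeding: drop water-diluted emulsion, 120 g a.i./10 ares. Harvest 14 d post-treatment; compare dry weight with untreated pots (duplicate).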

| Compound | Herbicidal rate (%) Echinochloa crus-galli [%] |
| --- | --- |
| Cc1c(Cc2ccccc2NS(=O)(=O)C(F)(F)F)c(=O)on1C(C)C [Compound 1-100] | 90 |
| Cc1c(Cc2ccccc2NS(=O)(=O)C(F)(F)F)c(=O)on1C(C)C1CC1 (centres unmarked) [Compound 1-144] | 90 |

System: Scirpus juncoides
Test: as above
Type: in vivo
Conditions: 120 g/10a active ingredient, assessed 14 days after treatment, dry weight vs untreated area
Outline: as §2

| Compound | Herbicidal rate (%) Scirpus juncoides [%] |
| --- | --- |
| Cc1c(Cc2ccccc2NS(=O)(=O)C(F)(F)F)c(=O)on1C(C)C [Compound 1-100] | 90 |
| Cc1c(Cc2ccccc2NS(=O)(=O)C(F)(F)F)c(=O)on1C(C)C1CC1 (centres unmarked) [Compound 1-144] | 90 |

System: broad leaf weeds (Lindernia pyxidaria and Monochoria vaginalis)
Test: as above
Type: in vivo
Conditions: Lindernia pyxidaria, 120 g/10a active ingredient, assessed 14 days after treatment, dry weight vs untreated area
Outline: as §2

| Compound | Herbicidal rate (%) Lindernia pyxidaria [%] |
| --- | --- |
| Cc1c(Cc2ccccc2NS(=O)(=O)C(F)(F)F)c(=O)on1C(C)C [Compound 1-100] | 90 |
| Cc1c(Cc2ccccc2NS(=O)(=O)C(F)(F)F)c(=O)on1C(C)C1CC1 (centres unmarked) [Compound 1-144] | 50 |

Same assay, conditions: Monochoria vaginalis, 120 g/10a active ingredient, assessed 14 days after treatment, dry weight vs untreated area

| Compound | Herbicidal rate (%) Monochoria vaginalis [%] |
| --- | --- |
| Cc1c(Cc2ccccc2NS(=O)(=O)C(F)(F)F)c(=O)on1C(C)C [Compound 1-100] | 100 |
| Cc1c(Cc2ccccc2NS(=O)(=O)C(F)(F)F)c(=O)on1C(C)C1CC1 (centres unmarked) [Compound 1-144] | 80 |

System: Amaranthus viridis
Test: Test Example 3: herbicidal effect test by treatment of dry field farming soil (one day after seeding)
Type: in vivo
Conditions: 120 g/10a active ingredient, evaluated 14 days after treatment
Outline: (§3)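 Weeds were seeded into the upper soil layer of alluvial field soil and, one day afterwards, the soil surface was sprayed with water-diluted emulsion delivering 120 g active ingredient per 10 ares. Mean plant dry weight relative to untreated pots after 14 days gave the herbicidal rate, tested in duplicate.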

| Compound | herbicidal rate, Amaranthus viridis [%] |
| --- | --- |
| Cc1c(Cc2ccccc2NS(=O)(=O)C(F)(F)F)c(=O)on1C(C)C [Compound 1-100] | 100 |
| Cc1c(Cc2ccccc2NS(=O)(=O)C(F)(F)F)c(=O)on1C(C)C1CC1 (centres unmarked) [Compound 1-144] | 0 |

System: Chenopodium album
Test: as above
Type: in vivo
Conditions: 120 g/10a active ingredient, evaluated 14 days after treatment
Outline: as §3

| Compound | herbicidal rate, Chenopodium album [%] |
| --- | --- |
| Cc1c(Cc2ccccc2NS(=O)(=O)C(F)(F)F)c(=O)on1C(C)C [Compound 1-100] | 100 |
| Cc1c(Cc2ccccc2NS(=O)(=O)C(F)(F)F)c(=O)on1C(C)C1CC1 (centres unmarked) [Compound 1-144] | 0 |

System: Echinochloa crus-galli
Test: as above
Type: in vivo
Conditions: 120 g/10a active ingredient, evaluated 14 days after treatment
Outline: as §3

| Compound | herbicidal rate, Echinochloa crus-galli [%] |
| --- | --- |
| Cc1c(Cc2ccccc2NS(=O)(=O)C(F)(F)F)c(=O)on1C(C)C [Compound 1-100] | 100 |
| Cc1c(Cc2ccccc2NS(=O)(=O)C(F)(F)F)c(=O)on1C(C)C1CC1 (centres unmarked) [Compound 1-144] | 70 |

System: southern crabgrass
Test: as above
Type: in vivo
Conditions: 120 g/10a active ingredient, evaluated 14 days after treatment
Outline: as §3

| Compound | herbicidal rate, southern crabgrass [%] |
| --- | --- |
| Cc1c(Cc2ccccc2NS(=O)(=O)C(F)(F)F)c(=O)on1C(C)C [Compound 1-100] | 100 |
| Cc1c(Cc2ccccc2NS(=O)(=O)C(F)(F)F)c(=O)on1C(C)C1CC1 (centres unmarked) [Compound 1-144] | 80 |

System: Amaranthus viridis
Test: Test Example 4: herbicidal effect test by treatment of leave and stem in dry field farming (seven days after seeding)
Type: in vivo
Conditions: 120 g/10a active ingredient; emulsion sprayed seven days after seeding; evaluated 14 days after treatment
Outline: (§4)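 Duplicate pots were scored 14 days post-spray by dry weight, herbicidal rate = {1 − treated/untreated average dry weight} × 100. The water-diluted emulsion, equivalent to 120 g active ingredient per 10 ares in 100 L, was applied seven days after sowing 20 seeds each into the upper 1 cm of alluvial soil.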

| Compound | herbicidal effect (herbicidal rate), Amaranthus viridis [%] |
| --- | --- |
| Cc1c(Cc2ccccc2NS(=O)(=O)C(F)(F)F)c(=O)on1C(C)C [Compound 1-100] | 30 |
| Cc1c(Cc2ccccc2NS(=O)(=O)C(F)(F)F)c(=O)on1C(C)C1CC1 (centres unmarked) [Compound 1-144] | 50 |

System: Chenopodium album
Test: as above
Type: in vivo
Conditions: 120 g/10a active ingredient; emulsion sprayed seven days after seeding; evaluated 14 days after treatment
Outline: as §4

| Compound | herbicidal effect (herbicidal rate), Chenopodium album [%] |
| --- | --- |
| Cc1c(Cc2ccccc2NS(=O)(=O)C(F)(F)F)c(=O)on1C(C)C [Compound 1-100] | 90 |
| Cc1c(Cc2ccccc2NS(=O)(=O)C(F)(F)F)c(=O)on1C(C)C1CC1 (centres unmarked) [Compound 1-144] | 0 |

System: Echinochloa crus-galli
Test: as above
Type: in vivo
Conditions: 120 g/10a active ingredient; emulsion sprayed seven days after seeding; evaluated 14 days after treatment
Outline: as §4

| Compound | herbicidal effect (herbicidal rate), Echinochloa crus-galli [%] |
| --- | --- |
| Cc1c(Cc2ccccc2NS(=O)(=O)C(F)(F)F)c(=O)on1C(C)C [Compound 1-100] | 90 |
| Cc1c(Cc2ccccc2NS(=O)(=O)C(F)(F)F)c(=O)on1C(C)C1CC1 (centres unmarked) [Compound 1-144] | 90 |

System: southern crabgrass
Test: as above
Type: in vivo
Conditions: 120 g/10a active ingredient; emulsion sprayed seven days after seeding; evaluated 14 days after treatment
Outline: as §4

| Compound | herbicidal effect (herbicidal rate), southern crabgrass [%] |
| --- | --- |
| Cc1c(Cc2ccccc2NS(=O)(=O)C(F)(F)F)c(=O)on1C(C)C [Compound 1-100] | 90 |
| Cc1c(Cc2ccccc2NS(=O)(=O)C(F)(F)F)c(=O)on1C(C)C1CC1 (centres unmarked) [Compound 1-144] | 90 |
